The record followed here is patent US7906507B2, “Oxadiazoanthracene compounds for the treatment of diabetes” (TransTech Pharma, Inc., priority 2008, dated 2011).

By EC50 is commonly meant the concentration at which the effect is half-maximal. High values mean weaker potency, low ones greater potency.

The target of this assay is T1, cloned human GLP-1 receptor (Homo sapiens, UniProt P43220).
T1 construct: expressed in transfected cells; host or cells: CHO or HEK-293 cells
The experiment in a line: Functional cell-based assay: cAMP functional assay. The conditions noted are these: for Emax: 0.5 h, percentage relative to maximal GLP-1-induced cAMP accumulation, na = not active in the assay, read-out: % activation. In short, it runs like this: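 Monolayer cells incubated 30 min at 37 °C with compounds (0.0001–100 μM) in IMDM containing 100 μM RO 20-1724 PDE inhibitor, 0.1% BSA and 2% DMSO. cAMP measured by HTRF.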
Background: Cyclic AMP is a second messenger, typically raised through Gs and lowered through Gi signalling.

T1 sequence (P43220 24-463): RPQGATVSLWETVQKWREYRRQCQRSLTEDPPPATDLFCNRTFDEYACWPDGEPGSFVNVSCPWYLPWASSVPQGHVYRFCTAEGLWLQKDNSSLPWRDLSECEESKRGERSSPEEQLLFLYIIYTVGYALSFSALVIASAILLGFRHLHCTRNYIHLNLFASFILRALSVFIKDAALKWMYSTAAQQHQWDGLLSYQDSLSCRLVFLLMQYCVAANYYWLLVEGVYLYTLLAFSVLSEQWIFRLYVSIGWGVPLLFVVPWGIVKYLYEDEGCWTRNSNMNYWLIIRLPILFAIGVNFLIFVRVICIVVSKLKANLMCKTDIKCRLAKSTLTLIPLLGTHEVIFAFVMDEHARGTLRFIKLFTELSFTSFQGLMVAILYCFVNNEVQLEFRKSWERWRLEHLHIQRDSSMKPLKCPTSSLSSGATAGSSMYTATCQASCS

In the case of `CC(C)OC(=O)N1Cc2cc3c(cc2C[C@H]1C(=O)N[C@@H](Cc1ccc(-c2ccc(C#N)cc2)cc1)C(=O)O)N(C)C(=O)C(c1ccc(OCc2ccc(Cl)c(Cl)c2)cc1)O3` (stereo partly drawn) [Example 68, (S)-7-[(S)-1-Carboxy-2-(4′-cyano-biphenyl-4-yl)-ethylcarbamoyl]-3-[4-(3,4-dichloro-benzyloxy)-phenyl]-1-methyl-2-oxo-1,2,3,5,7,8-hexahydro-4-oxa-1,6-diaza-anthracene-6-carboxylic acid isopropyl ester], it took 1100 nM to reach a half-maximal effect (EC50) and the Emax turned out to be 33%.

For the compound `CN1C(=O)C(c2ccc(OCc3ccc(Cl)c(Cl)c3)cc2)Oc2cc3c(cc21)C[C@@H](C(=O)N[C@@H](Cc1ccc(-c2ccc(C#N)cc2)cc1)C(=O)O)N(CC#Cc1ccccc1)C3` (stereo partly drawn) [Example 69, (S)-3-(4′-Cyano-biphenyl-4-yl)-2-{[(S)-3-[4-(3,4-dichloro-benzyloxy)-phenyl]-1-methyl-2-oxo-6-(3-phenyl-prop-2-ynyl)-2,3,5,6,7,8-hexahydro-1H-4-oxa-1,6-diaza-anthracene-7-carbonyl]-amino}-propionic acid], the EC50 turned out to be 574 nM and the Emax is 51%.

In the case of `CCC(c1ccccc1)N1Cc2cc3c(cc2C[C@H]1C(=O)N[C@@H](Cc1ccc(-c2ccc(C#N)cc2)cc1)C(=O)O)N(C)C(=O)C(c1ccc(OCc2ccc(Cl)c(Cl)c2)cc1)O3` (stereo partly drawn) [Example 70, (S)-3-(4′-Cyano-biphenyl-4-yl)-2-{[(S)-3-[4-(3,4-dichloro-benzyloxy)-phenyl]-1-methyl-2-oxo-6-(1-phenyl-propyl)-2,3,5,6,7,8-hexahydro-1H-4-oxa-1,6-diaza-anthracene-7-carbonyl]-amino}-propionic acid], a half-maximal effect (EC50) was put at 988 nM and the Emax is 6.9%.

Consider `CCc1ccccc1CN1Cc2cc3c(cc2C[C@H]1C(=O)N[C@@H](Cc1ccc(-c2ccc(C#N)cc2)cc1)C(=O)O)N(C)C(=O)C(c1ccc(OCc2ccc(Cl)c(Cl)c2)cc1)O3` (stereo partly drawn) [Example 71, (S)-3-(4′-Cyano-biphenyl-4-yl)-2-{[(S)-3-[4-(3,4-dichloro-benzyloxy)-phenyl]-6-(2-ethyl-benzyl)-1-methyl-2-oxo-2,3,5,6,7,8-hexahydro-1H-4-oxa-1,6-diaza-anthracene-7-carbonyl]-amino}-propionic acid], for which the EC50 came to 793 nM and the Emax came to 49%.

For `CN1C(=O)C(c2ccc(OCc3ccc(Cl)c(Cl)c3)cc2)Oc2cc3c(cc21)C[C@@H](C(=O)N[C@@H](Cc1ccc(-c2ccc(C#N)cc2)cc1)C(=O)O)N(C1CCCC1)C3` (stereo partly shown) [Example 74], the EC50 was determined as 327 nM and the Emax came to 19%.

On to `CN1C(=O)C(c2ccc(OCc3ccc(Cl)c(Cl)c3)cc2)Oc2cc3c(cc21)C[C@@H](C(=O)N[C@@H](Cc1ccc(-c2ccc(C#N)cc2)cc1)C(=O)O)N(C1CCCCC1)C3` (stereo partly drawn) [Example 75, (S)-3-(4′-Cyano-biphenyl-4-yl)-2-({(S)-6-cyclohexyl-3-[4-(3,4-dichloro-benzyloxy)-phenyl]-1-methyl-2-oxo-2,3,5,6,7,8-hexahydro-1H-4-oxa-1,6-diaza-anthracene-7-carbonyl}-amino)-propionic acid], for which a half-maximal effect (EC50) was put at 244 nM and the Emax worked out at 20%.

Consider `CN1C(=O)C(c2ccc(OCc3ccc(Cl)c(Cl)c3)cc2)Oc2cc3c(cc21)C[C@@H](C(=O)N[C@@H](Cc1ccc(-c2ccc(C#N)cc2)cc1)C(=O)O)N(C1CCC1)C3` (stereo partly drawn) [Example 76, (S)-3-(4′-Cyano-biphenyl-4-yl)-2-({(S)-6-cyclobutyl-3-[4-(3,4-dichloro-benzyloxy)-phenyl]-1-methyl-2-oxo-6(1-phenyl-cyclopentylmethyl)-2,3,5,6,7,8-hexahydro-1H-4-oxa-1,6-diaza-anthracene-7-carbonyl}-amino)-propionic acid], for which the EC50 was 1140 nM and the Emax is 8.12%.

Take `CN1C(=O)C(c2ccc(OCc3ccc(Cl)c(Cl)c3)cc2)Oc2cc3c(cc21)C[C@@H](C(=O)N[C@@H](Cc1ccc(-c2ccc(C#N)cc2)cc1)C(=O)O)N(CC1(c2ccccc2)CCCC1)C3` (stereo partly drawn) [Example 77, (S)-3-(4′-Cyano-biphenyl-4-yl)-2-{[(S)-3-[4-(3,4-dichloro-benzyloxy)-phenyl]-1-methyl-2-oxo-6-(1-phenyl-cyclopentylmethyl)-2,3,5,6,7,8-hexahydro-1H-4-oxa-1,6-diaza-anthracene-7-carbonyl]-amino}-propionic acid]: the EC50 is 1710 nM and the Emax was determined as 53%.

For `CC(c1ccccc1)N1Cc2cc3c(cc2C[C@H]1C(=O)N[C@@H](Cc1ccc(-c2ccc(C#N)cc2)cc1)C(=O)O)N(C)C(=O)C(c1ccc(OCc2ccc(Cl)c(Cl)c2)cc1)O3` (stereo partly drawn) [Example 80, (S)-3-(4′-Cyano-biphenyl-4-yl)-2-{[(S)-3-[4-(3,4-dichloro-benzyloxy)-phenyl]-1-methyl-2-oxo-6-(1-phenyl-ethyl)-2,3,5,6,7,8-hexahydro-1H-4-oxa-1,6-diaza-anthracene-7-carbonyl]-amino}-propionic acid], the response was half-maximal at 66 nM (EC50) and the Emax turned out to be 16%.

Turning to `O=C1Nc2cc3c(cc2OC1c1ccc(OCc2ccc(Cl)c(Cl)c2)cc1)CN(C(=O)c1ccccc1)[C@H](C(=O)N[C@@H](Cc1ccc(-c2ccncc2)cc1)C(=O)O)C3` (stereo partly drawn) [Example 83, (S)-2-({(S)-6-Benzoyl-3-[4-(3,4-dichloro-benzyloxy)-phenyl]-2-oxo-2,3,5,6,7,8-hexahydro-1H-4-oxa-1,6-diaza-anthracene-7-carbonyl}-amino)-3-(4-pyridin-4-yl-phenyl)-propionic acid], the EC50 was found to be 710 nM and the Emax was 18%.

For the compound `O=C1Nc2cc3c(cc2OC1c1ccc(OCc2ccc(Cl)c(Cl)c2)cc1)CN(C(=O)c1ccccc1)[C@H](C(=O)N[C@@H](Cc1ccc(-c2ccc(Cl)cc2)cc1)C(=O)O)C3` (stereo partly drawn) [Example 84, (S)-2-({(S)-6-Benzoyl-3-[4-(3,4-dichloro-benzyloxy)-phenyl]-2-oxo-2,3,5,6,7,8-hexahydro-1H-4-oxa-1,6-diaza-anthracene-7-carbonyl}-amino)-3-(4′-chloro-biphenyl-4-yl)-propionic acid], the 50% effective concentration (EC50) is 920 nM and the Emax is 43%.

As for `Cc1ccc(-c2ccc(C[C@H](NC(=O)[C@@H]3Cc4cc5c(cc4CN3Cc3ccccn3)OC(c3ccc(OCc4ccc(Cl)c(Cl)c4)cc3)C(=O)N5)C(=O)O)cc2)cc1` (stereo partly drawn) [Example 85, (S)-2-({(S)-3-[4-(3,4-Dichloro-benzyloxy)-phenyl]-2-oxo-6-pyridin-2-ylmethyl-2,3,5,6,7,8-hexahydro-1H-4-oxa-1,6-diaza-anthracene-7-carbonyl}-amino)-3-(4′-methyl-biphenyl-4-yl)-propionic acid], the 50% effective concentration (EC50) was 2000 nM and the Emax came out at 55%.

Take `CC[C@@H](c1ccccc1)N1Cc2cc3c(cc2C[C@H]1C(=O)N[C@@H](Cc1ccc(-c2ccc(C#N)cc2)cc1)C(=O)O)N(C)C(=O)[C@@H](c1ccc(OCc2ccc(Cl)c(Cl)c2)cc1)O3` [Example 86, (S)-3-(4′-Cyano-biphenyl-4-yl)-2-{[(3R,7S)-3-[4-(3,4-dichloro-benzyloxy)-phenyl]-1-methyl-2-oxo-6-((S)-1-phenyl-propyl)-2,3,5,6,7,8-hexahydro-1H-4-oxa-1,6-diaza-anthracene-7-carbonyl]-amino}-propionic acid]: the response was half-maximal at 59.3 nM (EC50) and the Emax amounted to 58%.

`CC[C@@H](c1ccccc1)N1Cc2cc3c(cc2C[C@H]1C(=O)N[C@@H](Cc1ccc(-c2ccc(C#N)cc2)cc1)C(=O)O)N(C)C(=O)[C@H](c1ccc(OCc2ccc(Cl)c(Cl)c2)cc1)O3` [Example 87, (S)-3-(4′-Cyano-biphenyl-4-yl)-2-{[(3S,7S)-3-[4-(3,4-dichloro-benzyloxy)-phenyl]-1-methyl-2-oxo-6-((S)-1-phenyl-propyl)-2,3,5,6,7,8-hexahydro-1H-4-oxa-1,6-diaza-anthracene-7-carbonyl]-amino}-propionic acid]: the EC50 came out at 64.5 nM and the Emax was determined as 82%.

As to `CC[C@@H](c1ccccc1)N1Cc2cc3c(cc2C[C@H]1C(=O)N[C@@H](Cc1ccc(-c2ccc(Cl)cc2)cc1)C(=O)O)N(C)C(=O)[C@@H](c1ccc(OCc2ccc(Cl)c(Cl)c2)cc1)O3` [Example 90, (S)-3-(4′-Chloro-biphenyl-4-yl)-2-{[(3R,7S)-3-[4-(3,4-dichloro-benzyloxy)-phenyl]-1-methyl-2-oxo-6-((S)-1-phenyl-propyl)-2,3,5,6,7,8-hexahydro-1H-4-oxa-1,6-diaza-anthracene-7-carbonyl]-amino}-propionic acid], the EC50 was found to be 1230 nM and the Emax stood at 43%.

For `CC[C@@H](c1ccccc1)N1Cc2cc3c(cc2C[C@H]1C(=O)N[C@@H](Cc1ccc(-c2ccc(OC)cc2)cc1)C(=O)O)N(C)C(=O)[C@@H](c1ccc(OCc2ccc(Cl)c(Cl)c2)cc1)O3` [Example 91, (S)-2-{[(3R,7S)-3-[4-(3,4-Dichloro-benzyloxy)-phenyl]-1-methyl-2-oxo-6-((S)-1-phenyl-propyl)-2,3,5,6,7,8-hexahydro-1H-4-oxa-1,6-diaza-anthracene-7-carbonyl]-amino}-3-(4′-methoxy-biphenyl-4-yl)-propionic acid], the EC50 amounted to 725 nM and the Emax came out at 39%.

On to `CC[C@@H](c1ccccc1)N1Cc2cc3c(cc2C[C@H]1C(=O)N[C@@H](Cc1ccc(-c2ccc(F)cc2)cc1)C(=O)O)N(C)C(=O)[C@@H](c1ccc(OCc2ccc(Cl)c(Cl)c2)cc1)O3` [Example 92, (S)-2-{[(3R,7S)-3-[4-(3,4-Dichloro-benzyloxy)-phenyl]-1-methyl-2-oxo-6-((S)-1-phenyl-propyl)-2,3,5,6,7,8-hexahydro-1H-4-oxa-1,6-diaza-anthracene-7-carbonyl]-amino}-3-(4′-fluoro-biphenyl-4-yl)-propionic acid], for which the EC50 was 723 nM and the Emax amounted to 30%.
